Drawing on the SangsterLogP compilation, this text covers logD for 13 compounds.

One may read the logD as the decadic logarithm of the distribution of all forms, ionised or not, between an organic phase and buffer at a given pH.

The series in a line: method code SF-AS, from DOI: 10.1177/1934578x0700201005. The conditions noted are these: pH 7.4.

As to `COc1cccc(-c2cc(=O)c3ccccc3o2)c1`, the logD was determined as 3.26.

Regarding `COc1ccc(-c2cc(=O)c3ccccc3o2)cc1`, the logD worked out at 3.21.

Compound `COc1ccccc1-c1cc(=O)c2ccccc2o1` showed a pH-dependent lipophilicity (logD) of 3.14.

In turn, `O=c1cc(-c2ccccc2)oc2cccc(O)c12` gave a logD of 3.39.

Consider `COc1ccc2c(=O)cc(-c3ccccc3)oc2c1`, for which the logD turned out to be 3.12.

In turn, `O=c1cc(-c2ccccc2O)oc2ccccc12` registered a logD of 3.01.

With `O=c1c(O)c(-c2ccccc2)oc2ccccc12`, the logD was found to be 3.52.

Compound `COc1cccc2oc(-c3ccccc3)cc(=O)c12` registered a logD of 2.98.

`O=c1cc(-c2ccccc2)oc2c(O)cccc12` gave a logD of 3.03.

`COc1ccc2oc(-c3ccccc3)cc(=O)c2c1` came in with a logD of 3.22.

As for `O=c1cc(-c2cccc(O)c2)oc2ccccc12`, the logD stood at 3.03.

The compound `COc1ccc2c(=O)cc(-c3ccccc3)oc2c1O` registered a logD of 2.9.

Regarding `COc1c(-c2ccccc2)oc2ccccc2c1=O`, the logD turned out to be 3.18.
